Measured values: patent US20060099666A1, “Analyzer for the simultaneous enzymatic detection of closely related analytes” (Medinov, Inc., priority 2002, published 2006)
Read-outs that look alike come from different tables or passages of the source.

Key:
[1] = test system: alcohol oxidase (Hansenula sp.); test: KM by the Hanes method, electrochemistry, alcohol oxidase of Hansenula sp.; type: biochemical; details: Hansenula sp. enzyme
Experimental: (§1) The Michaelis-Menten constant (KM) of an enzyme can be determined in an aqueous environment from the initial reaction rate of the enzyme catalyzed reaction, by either calorimetric or electrochemical analysis. The initial reaction rate was determined using both methods, based on the results obtained for different concentrations of methanol and ethanol and various alcohol oxydases (Hansenula sp., Pichia pastoris and Candida boidinii). Using the Hanes method (diagram of the concentration/initial rate as a function of the initial concentration of the substrate in the reaction medium), the KM can be calculated, which corresponds to the origin of the straight line, opposite the abscissa.

[2] = target: alcohol oxidase (Pichia pastoris) (Komagataella phaffii, UniProt P04842); details: Pichia pastoris enzyme
Experimental: as §1

[3] = target: alcohol oxidase (Candida boidini) (Candida boidinii, UniProt Q00922); details: Candida boidini enzyme, electrochemistry
alcohol oxidase (Candida boidini), sequence (Q00922 2-663 limits assumed): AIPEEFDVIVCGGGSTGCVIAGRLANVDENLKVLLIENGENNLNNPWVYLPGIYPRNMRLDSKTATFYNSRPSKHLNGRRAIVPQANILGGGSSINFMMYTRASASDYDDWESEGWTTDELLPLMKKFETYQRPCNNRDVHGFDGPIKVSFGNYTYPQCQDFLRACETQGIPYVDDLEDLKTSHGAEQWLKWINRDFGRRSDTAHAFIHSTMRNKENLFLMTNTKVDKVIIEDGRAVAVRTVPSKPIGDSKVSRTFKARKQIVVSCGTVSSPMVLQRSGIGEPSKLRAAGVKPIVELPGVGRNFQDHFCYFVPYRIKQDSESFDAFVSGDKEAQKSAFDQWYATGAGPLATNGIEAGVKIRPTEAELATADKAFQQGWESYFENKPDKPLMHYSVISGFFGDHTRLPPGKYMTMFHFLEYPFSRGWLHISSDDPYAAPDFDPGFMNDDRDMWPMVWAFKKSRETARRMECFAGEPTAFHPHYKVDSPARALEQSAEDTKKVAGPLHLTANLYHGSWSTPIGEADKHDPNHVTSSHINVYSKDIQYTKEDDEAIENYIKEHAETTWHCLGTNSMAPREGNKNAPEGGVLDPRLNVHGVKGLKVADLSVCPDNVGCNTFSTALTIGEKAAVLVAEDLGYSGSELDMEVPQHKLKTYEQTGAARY

[4] = target: T1, alcohol oxidase (Komagataella phaffii, UniProt P04842); test: Tests to improve the observed signals: effect of SDS on enzyme activity; type: biochemical; details: SDS 0.1%
T1 construct: purchased Sigma A-2404
T1 sequence (P04842 1-663): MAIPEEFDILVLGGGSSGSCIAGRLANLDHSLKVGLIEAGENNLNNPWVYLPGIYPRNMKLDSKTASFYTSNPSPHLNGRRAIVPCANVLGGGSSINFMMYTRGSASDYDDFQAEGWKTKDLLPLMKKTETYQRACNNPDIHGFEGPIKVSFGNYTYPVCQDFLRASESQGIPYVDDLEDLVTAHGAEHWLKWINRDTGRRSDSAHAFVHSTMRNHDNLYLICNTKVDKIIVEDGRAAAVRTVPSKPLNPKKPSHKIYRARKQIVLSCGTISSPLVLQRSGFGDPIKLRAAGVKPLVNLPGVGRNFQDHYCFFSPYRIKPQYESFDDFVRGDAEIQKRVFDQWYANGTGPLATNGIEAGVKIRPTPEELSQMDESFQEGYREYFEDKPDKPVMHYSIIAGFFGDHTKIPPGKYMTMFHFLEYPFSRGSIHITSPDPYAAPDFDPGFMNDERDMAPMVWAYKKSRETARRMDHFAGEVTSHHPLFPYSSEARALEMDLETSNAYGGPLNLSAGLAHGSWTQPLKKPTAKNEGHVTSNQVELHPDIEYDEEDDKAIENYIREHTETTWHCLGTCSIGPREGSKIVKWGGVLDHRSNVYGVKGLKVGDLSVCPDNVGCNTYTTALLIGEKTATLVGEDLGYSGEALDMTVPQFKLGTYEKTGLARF
Experimental: Tests aiming to improve the observed signals were carried out. Low concentrations of SDS (0.1%) allow for a uniform deposit of a sample on the surface of the working electrode, while simultaneously increasing the enzyme activity by a factor of 110%.

Structure (SMILES): CCO [EtOH, ethanol]
- Km ([1]; [EtOH] 0.25-5.0 mM, read-out: KM EtOH): 6000 µM
- Km ([2]; read-out: KM EtOH, [EtOH] 0.05-3.3 mM, colorimetry): 3460 µM
- Km ([2]; read-out: KM EtOH, [EtOH] 0.25-5.0 mM, electrochemistry): 2610 µM
- Km ([2]; read-out: KM EtOH, [EtOH] 2.5-10.0 mM, electrochemistry): 2910 µM
- Km ([3]; read-out: KM EtOH, [EtOH] 0.25-1.25 mM): 8410 µM

Structure (SMILES): CO [MeOH, methanol]
- Km ([1]; [MeOH] 0.05-2.5 mM, read-out: KM MeOH): 390 µM
- Km ([2]; read-out: KM MeOH, [MeOH] 0.02-2.5 mM, colorimetry): 640 µM
- Km ([2]; read-out: KM MeOH, [MeOH] 0.05-2.5 mM, electrochemistry): 310 µM
- Km ([2]; read-out: KM MeOH, [MeOH] 0.125-1.0 mM, electrochemistry): 560 µM
- Km ([3]; read-out: KM MeOH, [MeOH] 0.05-0.5 mM): 290 µM

Structure (SMILES): CCCCCCCCCCCCOS(=O)(=O)[O-].[Na+] [SDS]
- increasing the enzyme activity by a factor of [4]: 110%
